Some targets named below: Ephrin type-A receptor 7 (Homo sapiens, UniProt Q15375); Deoxycytidine kinase (Homo sapiens, UniProt P27707); Aurora kinase B (Homo sapiens, UniProt Q96GD4).
Test [1] has as its target Tyrosine-protein kinase SYK (Homo sapiens, UniProt P43405).
In test [2] the target is Tyrosine-protein kinase JAK1 (Homo sapiens, UniProt P23458).
The target of test [3] is T1, Cyclin-G-associated kinase (Homo sapiens, UniProt O14976).
T1 sequence (O14976 whole entry): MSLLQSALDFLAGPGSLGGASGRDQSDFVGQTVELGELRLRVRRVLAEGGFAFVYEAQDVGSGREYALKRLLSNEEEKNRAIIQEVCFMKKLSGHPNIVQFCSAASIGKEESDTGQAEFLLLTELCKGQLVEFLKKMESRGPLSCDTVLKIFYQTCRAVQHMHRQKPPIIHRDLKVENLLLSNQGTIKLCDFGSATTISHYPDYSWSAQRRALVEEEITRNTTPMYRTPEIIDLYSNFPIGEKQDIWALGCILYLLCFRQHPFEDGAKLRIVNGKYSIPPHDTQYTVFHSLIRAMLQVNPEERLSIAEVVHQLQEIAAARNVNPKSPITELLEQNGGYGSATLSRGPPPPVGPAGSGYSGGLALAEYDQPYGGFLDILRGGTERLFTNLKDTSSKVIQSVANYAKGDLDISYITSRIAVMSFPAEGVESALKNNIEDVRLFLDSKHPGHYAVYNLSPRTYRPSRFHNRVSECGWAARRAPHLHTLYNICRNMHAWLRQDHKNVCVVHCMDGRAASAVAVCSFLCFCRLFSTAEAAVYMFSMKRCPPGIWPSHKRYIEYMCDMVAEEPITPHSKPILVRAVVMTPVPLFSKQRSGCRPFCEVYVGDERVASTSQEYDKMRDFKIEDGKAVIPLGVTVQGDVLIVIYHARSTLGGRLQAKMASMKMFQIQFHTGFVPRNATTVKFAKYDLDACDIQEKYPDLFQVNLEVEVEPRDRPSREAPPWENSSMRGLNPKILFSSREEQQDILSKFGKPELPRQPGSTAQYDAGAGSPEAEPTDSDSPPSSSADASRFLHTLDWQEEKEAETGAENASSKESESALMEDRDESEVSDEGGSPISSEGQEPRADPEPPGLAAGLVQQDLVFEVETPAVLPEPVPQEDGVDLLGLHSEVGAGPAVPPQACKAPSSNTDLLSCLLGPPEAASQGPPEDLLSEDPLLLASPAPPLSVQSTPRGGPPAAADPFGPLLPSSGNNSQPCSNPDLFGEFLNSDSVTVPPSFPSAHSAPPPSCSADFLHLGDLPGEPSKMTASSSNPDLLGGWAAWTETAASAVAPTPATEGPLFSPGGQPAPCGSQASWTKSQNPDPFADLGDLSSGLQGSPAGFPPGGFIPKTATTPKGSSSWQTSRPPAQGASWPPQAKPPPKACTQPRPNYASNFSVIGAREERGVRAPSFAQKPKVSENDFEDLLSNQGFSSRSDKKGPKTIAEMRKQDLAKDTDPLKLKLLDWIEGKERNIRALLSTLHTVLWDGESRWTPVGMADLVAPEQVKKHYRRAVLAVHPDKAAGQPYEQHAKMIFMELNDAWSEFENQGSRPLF

Test [4] deals with RAC-alpha serine/threonine-protein kinase (Homo sapiens, UniProt P31749).
Test [5] addresses Protein-tyrosine kinase 2-beta (Homo sapiens, UniProt Q14289).
Test [6] addresses NADH dehydrogenase [ubiquinone] 1 alpha subcomplex subunit 13 (Homo sapiens, UniProt Q9P0J0).
For test [7], the target named is Putative heat shock protein HSP 90-beta 2 (Homo sapiens, UniProt Q58FF8).
Test [8] addresses T2, Dynamin-like GTPase OPA1, mitochondrial (Homo sapiens, UniProt O60313).
T2 sequence (O60313 whole entry): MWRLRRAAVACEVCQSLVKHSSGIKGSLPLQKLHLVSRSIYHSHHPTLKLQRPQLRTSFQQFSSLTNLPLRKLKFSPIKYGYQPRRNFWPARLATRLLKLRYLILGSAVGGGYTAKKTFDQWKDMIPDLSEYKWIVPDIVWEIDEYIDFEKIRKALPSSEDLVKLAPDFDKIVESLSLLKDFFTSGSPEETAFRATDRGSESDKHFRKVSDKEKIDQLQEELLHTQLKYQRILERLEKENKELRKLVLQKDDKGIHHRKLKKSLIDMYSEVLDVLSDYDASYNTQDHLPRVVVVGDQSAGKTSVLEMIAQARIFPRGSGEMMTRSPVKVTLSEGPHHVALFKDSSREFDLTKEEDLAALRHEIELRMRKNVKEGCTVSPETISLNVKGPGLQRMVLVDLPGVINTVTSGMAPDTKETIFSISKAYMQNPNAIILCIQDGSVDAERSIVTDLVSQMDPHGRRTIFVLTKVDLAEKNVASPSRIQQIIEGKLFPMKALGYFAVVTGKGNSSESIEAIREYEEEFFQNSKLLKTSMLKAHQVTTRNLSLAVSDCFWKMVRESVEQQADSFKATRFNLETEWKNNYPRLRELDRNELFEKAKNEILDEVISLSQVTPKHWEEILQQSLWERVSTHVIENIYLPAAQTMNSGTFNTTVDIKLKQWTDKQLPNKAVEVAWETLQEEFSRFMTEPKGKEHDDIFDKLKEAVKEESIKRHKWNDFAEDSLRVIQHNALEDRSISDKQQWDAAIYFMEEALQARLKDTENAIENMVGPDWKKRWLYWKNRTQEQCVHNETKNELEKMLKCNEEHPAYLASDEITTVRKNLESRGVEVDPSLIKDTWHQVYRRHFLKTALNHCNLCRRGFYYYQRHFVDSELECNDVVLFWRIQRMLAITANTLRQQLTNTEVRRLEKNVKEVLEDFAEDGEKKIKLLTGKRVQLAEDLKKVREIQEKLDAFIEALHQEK

Test [9] deals with Serine/threonine-protein kinase MRCK beta (Homo sapiens, UniProt Q9Y5S2).
For test [10], the target named is Serine/threonine-protein kinase 26 (Homo sapiens, UniProt Q9P289).
Test [11] has as its target Receptor-interacting serine/threonine-protein kinase 3 (Homo sapiens, UniProt Q9Y572).
The target in test [12] is Mitotic checkpoint serine/threonine-protein kinase BUB1 (Homo sapiens, UniProt O43683).

The source made the active and inactive calls. Rule as the data show it, for most assays here: actives have a measured Kd and inactives only a lower limit.
Also: in the data inactive means no Kd found up to 30 µM.

Aurora kinase B, sequence (Q96GD4 whole entry): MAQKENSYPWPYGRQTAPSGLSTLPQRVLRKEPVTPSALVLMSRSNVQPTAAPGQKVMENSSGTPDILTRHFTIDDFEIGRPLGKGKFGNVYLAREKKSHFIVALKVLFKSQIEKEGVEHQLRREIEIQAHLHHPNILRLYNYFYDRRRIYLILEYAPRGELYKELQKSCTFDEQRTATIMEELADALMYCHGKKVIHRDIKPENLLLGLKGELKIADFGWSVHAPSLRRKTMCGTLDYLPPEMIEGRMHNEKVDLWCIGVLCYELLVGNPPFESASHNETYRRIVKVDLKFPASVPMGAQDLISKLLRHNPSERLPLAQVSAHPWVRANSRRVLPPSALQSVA
Serine/threonine-protein kinase MRCK beta, sequence (Q9Y5S2 whole entry): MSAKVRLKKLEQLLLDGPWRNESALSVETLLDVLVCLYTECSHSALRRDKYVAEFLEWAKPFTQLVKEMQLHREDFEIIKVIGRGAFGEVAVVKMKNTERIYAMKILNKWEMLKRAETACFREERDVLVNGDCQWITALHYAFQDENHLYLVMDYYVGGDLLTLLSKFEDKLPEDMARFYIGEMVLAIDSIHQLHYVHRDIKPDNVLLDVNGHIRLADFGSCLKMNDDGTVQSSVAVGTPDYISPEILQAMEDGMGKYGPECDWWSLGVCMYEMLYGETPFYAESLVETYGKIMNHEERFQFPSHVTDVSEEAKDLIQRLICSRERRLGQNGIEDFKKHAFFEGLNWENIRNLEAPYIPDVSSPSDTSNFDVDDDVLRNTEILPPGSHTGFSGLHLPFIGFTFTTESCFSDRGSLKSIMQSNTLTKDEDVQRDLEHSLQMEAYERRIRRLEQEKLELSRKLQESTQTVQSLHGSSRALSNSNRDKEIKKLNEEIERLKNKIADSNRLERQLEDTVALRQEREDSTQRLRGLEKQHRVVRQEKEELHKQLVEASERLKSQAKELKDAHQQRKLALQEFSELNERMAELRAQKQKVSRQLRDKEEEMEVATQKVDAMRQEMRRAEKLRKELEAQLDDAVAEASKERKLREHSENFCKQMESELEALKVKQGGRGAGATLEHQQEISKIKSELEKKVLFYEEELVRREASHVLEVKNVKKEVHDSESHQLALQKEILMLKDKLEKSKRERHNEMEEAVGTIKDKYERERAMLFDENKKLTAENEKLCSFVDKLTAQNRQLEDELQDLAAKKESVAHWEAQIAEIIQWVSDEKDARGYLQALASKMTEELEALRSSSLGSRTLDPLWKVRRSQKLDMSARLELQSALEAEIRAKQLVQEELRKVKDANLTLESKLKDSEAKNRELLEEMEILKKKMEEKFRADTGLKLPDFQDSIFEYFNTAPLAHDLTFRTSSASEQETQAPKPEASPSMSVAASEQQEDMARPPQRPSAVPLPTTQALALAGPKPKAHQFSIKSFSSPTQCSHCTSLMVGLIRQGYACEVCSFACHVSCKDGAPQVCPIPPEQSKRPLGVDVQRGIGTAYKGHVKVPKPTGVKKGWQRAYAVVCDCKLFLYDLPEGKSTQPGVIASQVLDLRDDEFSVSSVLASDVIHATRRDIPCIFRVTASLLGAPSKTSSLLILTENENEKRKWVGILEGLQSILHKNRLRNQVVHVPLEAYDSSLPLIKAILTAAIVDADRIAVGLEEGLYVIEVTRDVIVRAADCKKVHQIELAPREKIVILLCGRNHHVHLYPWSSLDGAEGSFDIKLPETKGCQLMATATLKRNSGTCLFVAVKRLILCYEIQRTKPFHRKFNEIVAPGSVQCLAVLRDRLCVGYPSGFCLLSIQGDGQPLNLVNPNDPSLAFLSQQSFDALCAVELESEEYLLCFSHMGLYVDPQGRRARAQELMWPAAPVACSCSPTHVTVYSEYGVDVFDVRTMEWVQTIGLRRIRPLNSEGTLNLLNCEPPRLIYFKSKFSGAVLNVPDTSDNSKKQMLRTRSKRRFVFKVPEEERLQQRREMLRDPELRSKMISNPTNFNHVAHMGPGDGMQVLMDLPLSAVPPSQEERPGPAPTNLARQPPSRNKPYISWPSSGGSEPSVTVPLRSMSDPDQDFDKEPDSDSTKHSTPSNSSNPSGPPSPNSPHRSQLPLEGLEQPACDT
RAC-alpha serine/threonine-protein kinase, sequence (P31749 whole entry): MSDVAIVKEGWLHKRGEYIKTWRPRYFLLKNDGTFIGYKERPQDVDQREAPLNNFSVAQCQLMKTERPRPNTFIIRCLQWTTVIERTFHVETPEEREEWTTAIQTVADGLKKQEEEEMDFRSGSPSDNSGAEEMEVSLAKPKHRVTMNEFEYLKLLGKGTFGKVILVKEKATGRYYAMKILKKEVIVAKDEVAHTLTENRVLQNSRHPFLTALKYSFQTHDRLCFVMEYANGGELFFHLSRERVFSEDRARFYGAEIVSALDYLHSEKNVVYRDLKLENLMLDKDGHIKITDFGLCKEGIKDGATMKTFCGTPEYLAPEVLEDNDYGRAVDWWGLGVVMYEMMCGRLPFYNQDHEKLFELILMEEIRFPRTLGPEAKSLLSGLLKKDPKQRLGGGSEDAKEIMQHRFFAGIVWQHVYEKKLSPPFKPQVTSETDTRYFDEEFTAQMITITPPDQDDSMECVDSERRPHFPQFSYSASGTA
Receptor-interacting serine/threonine-protein kinase 3, sequence (Q9Y572 whole entry): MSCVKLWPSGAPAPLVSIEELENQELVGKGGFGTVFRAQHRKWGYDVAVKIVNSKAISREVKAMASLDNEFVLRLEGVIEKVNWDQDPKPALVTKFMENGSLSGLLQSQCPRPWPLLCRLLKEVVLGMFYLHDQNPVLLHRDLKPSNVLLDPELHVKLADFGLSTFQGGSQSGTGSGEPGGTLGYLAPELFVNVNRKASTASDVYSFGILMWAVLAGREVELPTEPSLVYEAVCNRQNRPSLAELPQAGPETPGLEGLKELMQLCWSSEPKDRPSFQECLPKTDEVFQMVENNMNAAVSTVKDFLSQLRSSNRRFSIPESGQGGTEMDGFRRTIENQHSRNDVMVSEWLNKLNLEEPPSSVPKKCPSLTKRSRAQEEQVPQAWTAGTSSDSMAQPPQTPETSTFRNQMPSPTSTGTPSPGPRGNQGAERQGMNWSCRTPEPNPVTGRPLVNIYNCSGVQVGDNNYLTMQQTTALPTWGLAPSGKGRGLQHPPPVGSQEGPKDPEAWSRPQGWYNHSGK
Ephrin type-A receptor 7, sequence (Q15375 whole entry): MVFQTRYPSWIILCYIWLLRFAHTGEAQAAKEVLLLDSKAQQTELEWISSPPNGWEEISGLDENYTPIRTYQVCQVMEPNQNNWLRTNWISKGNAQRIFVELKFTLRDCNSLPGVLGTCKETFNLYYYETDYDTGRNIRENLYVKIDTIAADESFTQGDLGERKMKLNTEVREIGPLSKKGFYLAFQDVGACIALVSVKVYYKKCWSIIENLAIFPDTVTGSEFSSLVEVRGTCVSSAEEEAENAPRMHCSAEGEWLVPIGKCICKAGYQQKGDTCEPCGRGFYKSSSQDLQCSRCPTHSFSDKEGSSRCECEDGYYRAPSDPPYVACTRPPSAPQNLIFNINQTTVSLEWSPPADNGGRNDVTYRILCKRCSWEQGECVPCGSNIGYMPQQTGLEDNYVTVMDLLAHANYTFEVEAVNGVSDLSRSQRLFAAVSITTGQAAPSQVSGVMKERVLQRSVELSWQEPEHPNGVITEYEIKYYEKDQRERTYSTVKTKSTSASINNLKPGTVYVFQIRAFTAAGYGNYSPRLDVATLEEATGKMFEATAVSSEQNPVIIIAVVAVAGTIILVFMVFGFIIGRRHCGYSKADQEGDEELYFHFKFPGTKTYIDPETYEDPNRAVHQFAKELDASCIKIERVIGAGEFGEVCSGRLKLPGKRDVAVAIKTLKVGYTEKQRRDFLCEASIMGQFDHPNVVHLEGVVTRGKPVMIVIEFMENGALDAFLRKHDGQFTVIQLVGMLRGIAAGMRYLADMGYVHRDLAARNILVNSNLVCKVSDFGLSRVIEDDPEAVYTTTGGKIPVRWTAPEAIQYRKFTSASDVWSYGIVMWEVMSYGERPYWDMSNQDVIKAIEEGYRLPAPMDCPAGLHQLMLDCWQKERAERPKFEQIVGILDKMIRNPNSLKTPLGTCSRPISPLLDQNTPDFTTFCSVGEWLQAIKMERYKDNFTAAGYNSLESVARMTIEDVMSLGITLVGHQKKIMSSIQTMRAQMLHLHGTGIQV
NADH dehydrogenase [ubiquinone] 1 alpha subcomplex subunit 13, sequence (Q9P0J0 whole entry, one chain of several): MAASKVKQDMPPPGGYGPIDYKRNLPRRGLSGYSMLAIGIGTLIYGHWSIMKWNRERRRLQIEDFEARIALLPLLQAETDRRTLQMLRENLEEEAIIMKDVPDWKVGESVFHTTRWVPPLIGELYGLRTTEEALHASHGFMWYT
Serine/threonine-protein kinase 26, sequence (Q9P289 whole entry): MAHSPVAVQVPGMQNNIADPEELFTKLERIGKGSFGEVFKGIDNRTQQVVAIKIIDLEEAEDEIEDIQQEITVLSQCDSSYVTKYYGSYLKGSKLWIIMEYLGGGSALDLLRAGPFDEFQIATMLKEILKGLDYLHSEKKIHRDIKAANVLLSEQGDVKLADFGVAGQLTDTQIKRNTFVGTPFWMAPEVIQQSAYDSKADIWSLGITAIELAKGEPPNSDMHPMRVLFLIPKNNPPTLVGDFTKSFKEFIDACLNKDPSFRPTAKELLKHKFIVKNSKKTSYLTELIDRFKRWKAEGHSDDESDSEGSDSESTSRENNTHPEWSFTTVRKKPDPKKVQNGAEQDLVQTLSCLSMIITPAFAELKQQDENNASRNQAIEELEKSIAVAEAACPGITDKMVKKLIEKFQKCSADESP
Deoxycytidine kinase, sequence (P27707 whole entry): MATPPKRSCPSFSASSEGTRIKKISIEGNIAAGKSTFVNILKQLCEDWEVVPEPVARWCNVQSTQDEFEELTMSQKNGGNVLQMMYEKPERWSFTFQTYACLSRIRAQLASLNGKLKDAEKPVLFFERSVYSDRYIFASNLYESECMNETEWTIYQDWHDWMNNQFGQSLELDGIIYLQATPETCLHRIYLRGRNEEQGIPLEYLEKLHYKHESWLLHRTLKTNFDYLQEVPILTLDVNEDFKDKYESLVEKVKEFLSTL

Usually Kd stands for the concentration at which binding is half-saturated. In the case of `O=C(O)c1ccc2c(c1)nc(Nc1cccc(Cl)c1)c1ccncc12` [SILMITASERTIB], the Kd in [1] is > 30 µM (inactive); in [2] it was > 30 µM (inactive); in [3], 5.16 µM (active); at Ephrin type-A receptor 7, > 30 µM (inactive); in test [4], > 30 µM (inactive); in test [5], > 30 µM (inactive). Further, the Kd was > 30 µM (inactive) in test [6]; > 30 µM (inactive) in [7]; > 30 µM (inactive) in test [8]; > 30 µM (inactive) on Deoxycytidine kinase; > 30 µM (inactive) in [9]; 1.71 µM in test [10]. The equilibrium dissociation constant (Kd) in [11] was 2.18 µM (active).
Turning to `CN(c1ncccc1CNc1nc(Nc2ccc3c(c2)CC(=O)N3)ncc1C(F)(F)F)S(C)(=O)=O` [PF-00562271], the Kd in test [12], in test [2], in [3], in [6], in [7] and in test [8] was > 30 µM (inactive) each time. Moreover, the Kd at Aurora kinase B is 1.04 µM (active); on Deoxycytidine kinase it was > 30 µM (inactive); in test [9], > 30 µM (inactive); in [10], 0.012 µM; in test [11], > 30 µM (inactive).
Take `CCN1CCN(Cc2ccc(Nc3ncc(F)c(-c4cc(F)c5nc(C)n(C(C)C)c5c4)n3)nc2)CC1` [ABEMACICLIB]: the Kd was > 30 µM (inactive) in test [12]; > 30 µM (inactive) in test [1]; > 30 µM (inactive) in test [2]; 2.19 µM (active) in [3]; > 30 µM (inactive) in [4]; > 30 µM (inactive) in test [5]. In addition, the Kd (in test [6]; in [7]; in test [8]; at Aurora kinase B; on Deoxycytidine kinase; in test [9]) was > 30 µM (inactive) in each case. In addition, the Kd in test [10] and in [11] was > 30 µM (inactive) throughout.
In the case of `C=CCN(/C=C1/C(=O)O[C@H](COC)[C@@]2(C)C1=C(O)C(=O)C1=C2[C@H](OC(C)=O)C[C@]2(C)C(=O)CC[C@@H]12)CC=C` [SONOLISIB], the Kd in [1], in [2], in test [3], in test [4], in test [5] and in test [6] was > 30 µM (inactive) each time. The Kd (in test [7]; in [8]; on Aurora kinase B; on Deoxycytidine kinase; in [9]; in [10]) was > 30 µM (inactive) throughout. For the same compound, in test [11], the Kd is > 30 µM (inactive).
`CCN(CCCOc1ccc2c(Nc3cc(CC(=O)Nc4cccc(F)c4)n[nH]3)ncnc2c1)CCOP(=O)(O)O` [BARASERTIB]: the Kd (in test [1]; in test [2]; in test [3]; at Ephrin type-A receptor 7; in test [4]; in test [5]) was > 30 µM (inactive) in each case. In addition, the Kd (in test [6]; in test [7]; in [8]; on Deoxycytidine kinase; in test [9]; in test [10]) was > 30 µM (inactive) each time. Further, the Kd in test [11] is > 30 µM (inactive).
Take `COc1cc2nccc(Oc3ccc(NC(=O)C4(C(=O)Nc5ccc(F)cc5)CC4)cc3)c2cc1OC` [CABOZANTINIB]: the Kd (in test [12]; in test [1]; in test [2]; in [3]; on Ephrin type-A receptor 7; in test [4]) was > 30 µM (inactive) each time. Besides, the Kd (in test [5]; in test [6]; in [7]; in [8]; at Deoxycytidine kinase; in [9]) was > 30 µM (inactive) each time. For the same compound, the Kd in [10] is > 30 µM (inactive); in test [11], 2.46 µM (active).
Regarding `O=C(NC[C@H](O)CO)c1ccncc1Nc1ccc(I)cc1F` [PIMASERTIB], the Kd in [12], in [1], in [2], in test [3], in test [4] and in test [5] was > 30 µM (inactive) in each case. In addition, the Kd (in [6]; in test [7]; in test [8]; at Aurora kinase B; on Deoxycytidine kinase; in [9]) was > 30 µM (inactive) in each case. Further, the Kd in test [10] and in test [11] was > 30 µM (inactive) throughout.
In the case of `CC(C)CC(=O)Nc1[nH]nc2c1CN(C(=O)C1CCN(C)CC1)C2(C)C` [PHA-793887], the Kd in test [12], in test [1], in [2], in test [3], in test [4] and in [5] was > 30 µM (inactive) each time. Also, the Kd (in test [6]; in test [7]; in test [8]; on Aurora kinase B; at Deoxycytidine kinase; in [9]) was > 30 µM (inactive) throughout. Moreover, the Kd in [10] is 0.175 µM; in [11], > 30 µM (inactive).

The values above are taken from ChEMBL document CHEMBL3991601, “The target landscape of clinical kinase drugs” (Science, 2017).
